According to paper PMC5215601, “Functional Characterization of the N-Terminal C2 Domain from Arabidopsis thaliana Phospholipase Dα and Dβ” (BioMed Research International, 2016):

What was measured:
[1] = target: T1, C2β domain of AtPLDβ (mC2β) (Arabidopsis thaliana, UniProt P93733, F299V); assay: protein to dansyl-PE liposome FRET; assay type: binding; conditions: 20 μM liposomes with 5% dansyl-PE, 1 μM domain, 50 mM HEPES pH 8, 30 °C; 0, 50 or 200 μM Ca2+
T1 construct: gene PLDBETA1; C2 domain cut to match mature-like C2α; forward primer encodes MVGRLPG (second codon F changed to V); C-terminal 6xHis kept
T1 sequence (P93733 298-418 F299V): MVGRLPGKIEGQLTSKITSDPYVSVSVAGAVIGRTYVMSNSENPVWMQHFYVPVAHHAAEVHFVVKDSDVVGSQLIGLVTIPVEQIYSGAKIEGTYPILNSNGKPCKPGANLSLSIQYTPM

[2] = target: T2, C2α domain of AtPLDα (mC2α) (Arabidopsis thaliana, UniProt Q38882); assay: protein to dansyl-PE liposome FRET; lipid dot-blot; assay type: binding; conditions: 20 μM liposomes with 5% dansyl-PE, 1 μM domain, 50 mM HEPES pH 8, 30 °C; 0, 50 or 200 μM Ca2+
T2 construct: gene PLDALPHA1; mature-like C2 domain lacking the N-terminal residues; forward primer encodes (M)ANVEET, extra Met added; last encoded residues before tag ...LQYFHVE by reverse primer; C-terminal 6xHis kept
T2 sequence (Q38882 35-152): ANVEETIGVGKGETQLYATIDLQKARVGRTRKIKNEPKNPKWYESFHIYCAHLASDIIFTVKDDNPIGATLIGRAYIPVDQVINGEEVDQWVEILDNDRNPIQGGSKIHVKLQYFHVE

[3] = target: T1, C2β domain of AtPLDβ (mC2β); assay: protein to dansyl-PE liposome FRET; lipid dot-blot; assay type: binding; conditions: 20 μM liposomes with 5% dansyl-PE, 1 μM domain, 50 mM HEPES pH 8, 30 °C; 0, 50 or 200 μM Ca2+
AtPLDα-WT = target: T3, AtPLDα-WT (Arabidopsis thaliana, UniProt Q38882); assay: choline oxidase / peroxidase coupled colorimetric assay, […] nm; assay type: biochemical; conditions: crude P. pastoris extract; 266 μM POPC in SDS / Triton X-100 mixed micelles, 20 mM CaCl2, 50 mM Tris-HCl pH 8.0
T3 construct: gene PLDALPHA1; full-length cDNA, untagged, Pichia pastoris X-33; possibly N-glycosylated
T3 sequence (Q38882 36-810): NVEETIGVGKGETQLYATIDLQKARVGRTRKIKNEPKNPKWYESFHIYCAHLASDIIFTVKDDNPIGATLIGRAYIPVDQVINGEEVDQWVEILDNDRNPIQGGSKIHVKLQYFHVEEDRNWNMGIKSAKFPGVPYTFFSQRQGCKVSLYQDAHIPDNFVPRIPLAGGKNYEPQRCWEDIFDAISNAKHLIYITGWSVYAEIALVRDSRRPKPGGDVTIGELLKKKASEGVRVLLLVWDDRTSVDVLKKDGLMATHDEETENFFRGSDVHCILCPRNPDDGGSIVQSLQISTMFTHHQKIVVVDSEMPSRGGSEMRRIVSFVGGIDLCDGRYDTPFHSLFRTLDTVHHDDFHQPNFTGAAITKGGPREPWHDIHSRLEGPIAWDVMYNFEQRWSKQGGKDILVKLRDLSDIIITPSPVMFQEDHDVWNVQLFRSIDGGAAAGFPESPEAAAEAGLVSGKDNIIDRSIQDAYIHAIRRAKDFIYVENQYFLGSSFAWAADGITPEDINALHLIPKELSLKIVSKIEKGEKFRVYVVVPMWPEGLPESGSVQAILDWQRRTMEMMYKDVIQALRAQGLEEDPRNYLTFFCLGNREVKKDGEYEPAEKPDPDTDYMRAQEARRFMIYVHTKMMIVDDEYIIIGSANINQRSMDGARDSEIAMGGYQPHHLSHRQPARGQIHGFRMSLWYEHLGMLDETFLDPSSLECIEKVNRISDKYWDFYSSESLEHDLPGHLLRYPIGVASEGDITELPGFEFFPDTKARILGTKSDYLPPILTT

| Structure (SMILES) | relative FRET [1] | relative FRET [2] | relative FRET [3] | PLD activity (AtPLDα-WT) |
| --- | --- | --- | --- | --- |
| CCCCCCCC/C=C\CCCCCCCC(=O)O[C@H](COC(=O)CCCCCCCCCCCCCCC)COP(=O)(O)OCC(O)CO (mixture of isomers) [PG, 1-Palmitoyl-2-oleoyl-sn-glycero-3-phospho-(1′-rac-glycerol)] | both C2 domains showed a strong binding to PG vesicles | both C2 domains showed a strong binding to PG vesicles |  |  |
| CCCCCCCC/C=C\CCCCCCCC(=O)O[C@H](COC(=O)CCCCCCCCCCCCCCC)COP(=O)(O)O [PA, 1-palmitoyl-2-oleoyl-sn-glycero-3-phosphate] |  | both C2 domains were found to bind anionic phospholipids (PA and PS) | both C2 domains were found to bind anionic phospholipids (PA and PS) |  |
| CCCCCCCC/C=C\CCCCCCCC(=O)O[C@H](COC(=O)CCCCCCCCCCCCCCC)COP(=O)([O-])OCC[N+](C)(C)C [PC, 1-Palmitoyl-2-oleoyl-sn-glycero-3-phosphocholine] |  |  |  | crude extracts of P. pastoris transformed with the AtPLDα-WT exhibited a higher PLD activity |
